pIC50: −log10 of the molar value.
What was measured:
[1] = test system: AR and CBP or p300 ternary complex; assay: Ternary complex formation assay (sandwich ELISA on lysates of treated VCaP cells: AR capture, CBP or p300 detection); format: cell-based; conditions: VCaP cells treated with bifunctional for 1.5 hours; lysate; anti-AR capture, CBP or p300 antibody detection
Protocol: Example B-1: Ternary Complex Formation Assay
Preparation of Mouse Anti-AR Antibody Coated 96 Well Plates
Black MaxiSorp plates: coat with 50 μL of mouse 1/50 diluted AR antibody (Monoclonal Antibody (AR 441 from Thermo Fisher); diluted in phosphate buffered saline (PBS). Spin the liquid to the bottom of the wells, if necessary. Incubate overnight at 4° C. Next day, wash 3 times with 200 μL of TBST. Block with 200 μL of blocking buffer (5% BSA in TBST) at room temperature for 2 hours (BSA: A4503 or A2153 from Sigma). Wash plates 3 times with TBST. Plates are ready for lysates
Preparation of Dimerizer Treated Lysates
Culture cells in 96 wells at 50K VCaP cells/well for at least 3 days. Plate in 5% Omega charcoal stripped FBS in total volume of 200 uL. Treat with bifunctional for 1.5 hours by adding 1 μL of 200× stock in DMSO. Aspirate media/compound. Add and pipet-to-mix 70 μL of 1× AlphaLisa Lysis Buffer to each well (Perkin Elmer, AlphaLISA SureFire Ultra, diluted in water). Pipet up and down when adding lysis buffer to disrupt cells. Let lysis proceed for 30 min at 4° C.
Incubate for 1 hour at room temperature. Flick out the lysates. Wash 3 times with TBST. Add 75 uL of rabbit CBP or p300 antibody to each well (diluted 1:5000 in blocking buffer (5% BSA in TBST). CBP antibody: (D6C5) Rabbit mAb #7389; p300 antibody: (D8Z4E) Rabbit mAb #86377. Incubate overnight at 4° C. Wash 3 times with 300 uL TBST, each time on shaker for 5-10 min. Prepare goat anti-rabbit antibody conjugated to HRP (1/100K dilution in blocking buffer) Invitrogen Catalog number: 32260. Add 75 uL of HRP-conjugated goat anti-rabbit antibody. Incubate at room temperature for 1 hour. Flick out the HRP-antibody mixture. Wash 7-8 times with TBST, each time on shaker for 10 min. Later washes try to overflow the wells so that no residual HRP remains bound to the sides of the well. Prepare and add 75 uL/well of QuantaRed Enhance Chemifluorescent HRP Substrate solution. Immediately read fluorescence on BMG ClarioStar (ex: 570/em 585), and repeat the read in 5 minutes and 15 minutes.

VCaP cells = assay: VCaP growth inhibition assay (CTG); format: cell-based; conditions: Homo sapiens, 216 h, 30 pM R1881, 9-day treatment, CTG luminescence
Protocol: Example B-2: VCaP Growth Inhibition Assay
VCaP cells (ATCC Cat #CRL-2876) are plated at 1×10^4 cells per well of a white plastic 96-well cluster plate (Thermo Scientific Nunc Cat #165306) in 100 uL phenol red-free DMLEM (Gibco Cat #21063-029) media with […] (Omega Scientific Cat #FB-04). Cluster plates are returned to the incubator (37*C/5% CO2) for 72 hours prior to treatment. Just prior to treatment, 100 uL of phenol red-free DMEM/5% CSS and 60 pM Ri881 (Sigma Cat #R0908-10 mg) was added to each well of the cluster plates (Final R1881 concentration=30 pM). Compounds (200×) were added to each well in a volume of 1 uL, with serial dilutions (1:5) from 20 uM to 2 pM (final concentrations in well are 100 nM to 10 fMV). Cluster plates are returned to the incubator for 9 days.
After the 9-day treatment period, media was removed from the cluster plates by inversion and 100 uL room temperature CTG reagent (Promega Cat #G7573) is added to each well. The cluster plates are placed on a shaker and incubated at room temperature for 20 minutes. Following this shaking/incubation, cluster plates are read on a luminometer (BMG ClarioStar). IC50 values are obtained by graphing the RLU data vs. compound concentration with nonlinear regression 4-parameter logistic curves (GraphPad Prism).

SMILES	Average Ternary Complex [1]	pIC50 (VCaP cells)
CC(=O)N1CCc2c(c(N3CCCc4cc(-c5cnn(C)c5)c(C(F)F)cc43)nn2C2CCN(C3CCC(Oc4ccc(-c5ccc(N6C(=S)N(c7ccc(C#N)c(C(F)(F)F)c7)C(=O)C6(C)C)cc5)cc4)C3)CC2)C1 (stereo not shown) [Compound 18]	B (B is >1 nM and ≤10 nM)	
CC(=O)N1CCc2c(c(-c3cccc4cc(-c5ccc(CCC6CCN(c7ccc(C8CCN(c9ccc(C#N)c(C(F)(F)F)c9)CC8)cc7)CC6)nc5)ncc34)nn2C2CCOCC2)C1 [Compound 14, 4-[4-[4-[4-[2-[5-[8-(5-acetyl-1-tetrahydropyran-4-yl-6,7-dihydro-4H-pyrazolo[4,3-c]pyridin-3-yl)-3-isoquinolyl]-2-pyridyl]ethyl]-1-piperidyl]phenyl]-1-piperidyl]-2-(trifluoromethyl)benzonitrile]	D (D is active and >100 nM)	< 7.00
CC(=O)N1CCc2c(c(N3CCCc4cc(-c5cnn(C)c5)c(C(F)F)cc43)nn2C2CCN(C3CC(Oc4ccc(-c5ccc(N6C(=S)N(c7ccc(C#N)c(C(F)(F)F)c7)C(=O)C6(C)C)cc5)cc4)C3)CC2)C1 (stereo not shown) [Compound 19]	B (B is >1 nM and ≤10 nM)	
CNC(=O)N1CCc2c(c(N3CCCc4cc(-c5cnn(C)c5)c(C(F)F)cc43)nn2C2CCN(C(=O)COCC3CCN(c4ccc([C@H]5c6ccc(O)cc6CC[C@H]5c5ccccc5)cc4)CC3)CC2)C1 [Compound 8]		7.00 to 9.00
CC(=O)N1CCc2c(c(N3CCCc4cc(-c5cnn(C)c5)c(C(F)F)cc43)nn2C2CCN(CCOCCOc3ccc(C4CCN(c5ccc(C#N)c(C(F)(F)F)c5)CC4)cc3)CC2)C1 [Compound 2, 4-[4-[4-[2-[2-[4-[5-acetyl-3-[7-(difluoromethyl)-6-(1-methylpyrazol-4-yl)-3,4-dihydro-2H-quinolin-1-yl]-6,7-dihydro-4H-pyrazolo[4,3-c]pyridin-1-yl]-1-piperidyl]ethoxy]ethoxy]phenyl]-1-piperidyl]-2-(trifluoromethyl)benzonitrile]	D (D is active and >100 nM)	
CNC(=O)N1CCc2c(c(N3CCCc4cc(-c5cnn(C)c5)c(C(F)F)cc43)nn2C2CCN(C(=O)COCCOCCN3CCN(CC4CCN(c5ccc([C@H]6c7ccc(O)cc7CC[C@H]6c6ccccc6)cc5)CC4)CC3)CC2)C1 [Compound 11]		< 7.00
CNC(=O)N1CCc2c(c(N3CCCc4cc(-c5cnn(C)c5)c(C(F)F)cc43)nn2C2CCN(C(=O)COCCCC3CCN(c4ccc([C@H]5c6ccc(O)cc6CC[C@H]5c5ccccc5)cc4)CC3)CC2)C1 [Compound 9]		7.00 to 9.00
CC(=O)N1CCc2c(c(N3CCCc4cc(-c5cnn(C)c5)c(C(F)F)cc43)nn2C2CCN(CCCCOc3ccc(C4CCN(c5ccc(C#N)c(C(F)(F)F)c5)CC4)cc3)CC2)C1 [Compound 3, 4-[4-[4-[4-[4-[5-acetyl-3-[7-(difluoromethyl)-6-(1-methylpyrazol-4-yl)-3,4-dihydro-2H-quinolin-1-yl]-6,7-dihydro-4H-pyrazolo[4,3-c]pyridin-1-yl]-1-piperidyl]butoxy]phenyl]-1-piperidyl]-2-(trifluoromethyl)benzonitrile]	D (D is active and >100 nM)	
CNC(=O)N1CCc2c(c(N3CCCc4cc(-c5cnn(C)c5)c(C(F)F)cc43)nn2C2CCN(C(=O)CC3CCN(c4ccc([C@H]5c6ccc(O)cc6CC[C@H]5c5ccccc5)cc4)CC3)CC2)C1 [Compound 6]		7.00 to 9.00
CC(=O)N1CCc2c(c(N3CCCc4cc(-c5cnn(C)c5)c(C(F)F)cc43)nn2C2CCN(C(=O)COC3CCN(c4ccc(N5C(=S)N(c6ccc(C#N)c(C(F)(F)F)c6)C(=O)C5(C)C)cc4)CC3)CC2)C1 [Compound 21]	B (B is >1 nM and ≤10 nM)	
CC(=O)N1CCc2c(c(N3CCCc4cc(-c5cnn(C)c5)c(C(F)F)cc43)nn2C2CCN(CCOC3CCN(c4ccc(N5C(=S)N(c6ccc(C#N)c(C(F)(F)F)c6)C(=O)C5(C)C)cc4)CC3)CC2)C1 [Compound 20]	B (B is >1 nM and ≤10 nM)	
CNC(=O)N1CCc2c(c(N3CCCc4cc(-c5cnn(C)c5)c(C(F)F)cc43)nn2C2CCN(C(=O)CCC3CCN(c4ccc([C@H]5c6ccc(O)cc6CC[C@H]5c5ccccc5)cc4)CC3)CC2)C1 [Compound 7]		7.00 to 9.00

Reference: patent publication US20250127908A1, “HETEROBIFUNCTIONAL CONDITIONAL INHIBITORS” (Kolm Therapeutics Inc., priority 2023, published 2025)
